Values quoted from earlier work as cited in PMC6260473 (Saudi Pharmaceutical Journal : SPJ, 2018).

Test system: human colorectal adenocarcinoma cell lined HT29
Conditions: read-out: IC50, cytotoxic effect, ref Nowak et al., 2014

Row | Compound | IC50 [µM]
1 | COc1ccc(Cn2cnc3c(cc(N4CCOCC4)c4ccccc43)c2=O)cc1 [3-(4-methoxybenzyl)-6-(morpholin-4-yl)benzo[h]quinazolin-4(3H)-one] | 4.12
2 | N.N.[Cl][Pt][Cl] [cisplatin] | 8.47
